Measured values from PubChem BioAssay AID2060626 (Molecular Pharmacology Branch, DTP, NCI, 2025).
Several values for one entry are separate records, joined by “and”; a condition that tells them apart may be missing. Equal entries are not always repeated.

System: 168753-222-R-J1-PDC complex spheroid viability
Test: Anticancer human tumor 168753-222-R-J1-PDC patient-derived bladder carcinoma cell line growth inhibition [CLK]
Details: for viability, T/C: stronger effect = lower value; active means viability on the fitted dose curve at most 10% of control; inactive means the rest
Method in brief: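 Patient-derived tumor cells grown as complex spheroids with HUVEC endothelial cells and mesenchymal stem cells, treated with drug combinations. Concentrations descend in half-log steps from near clinical Cmax, or from 10 microM if Cmax unknown.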

[1] = curve of first compound, second compound 0.0316 µM
[2] = curve of first compound, second compound 0.1 µM
[3] = curve of first compound, second compound 0.316 µM
[4] = curve of first compound, second compound 1 µM
[5] = curve of first compound, second compound 3.16 µM
[6] = curve of first compound, second compound 10 µM
[7] = second compound 0.0316 µM, first compound 0.0316 µM
[8] = second compound 0.0316 µM, first compound 0.1 µM
[9] = second compound 0.0316 µM, first compound 0.316 µM
[10] = second compound 0.0316 µM, first compound 1 µM
[11] = second compound 0.0316 µM, first compound 3.16 µM
[12] = second compound 0.0316 µM, first compound 10 µM
[13] = second compound 0.1 µM, first compound 0.0316 µM
[14] = second compound 0.1 µM, first compound 0.1 µM
[15] = second compound 0.1 µM, first compound 0.316 µM
[16] = second compound 0.1 µM, first compound 1 µM
[17] = second compound 0.1 µM, first compound 3.16 µM
[18] = second compound 0.1 µM, first compound 10 µM
[19] = second compound 0.316 µM, first compound 0.0316 µM
[20] = second compound 0.316 µM, first compound 0.1 µM
[21] = second compound 0.316 µM, first compound 0.316 µM
[22] = second compound 0.316 µM, first compound 1 µM
[23] = second compound 0.316 µM, first compound 3.16 µM
[24] = second compound 0.316 µM, first compound 10 µM
[25] = second compound 1 µM, first compound 0.0316 µM
[26] = second compound 1 µM, first compound 0.1 µM
[27] = second compound 1 µM, first compound 0.316 µM
[28] = second compound 1 µM, first compound 1 µM
[29] = second compound 1 µM, first compound 3.16 µM
[30] = second compound 1 µM, first compound 10 µM
[31] = second compound 3.16 µM, first compound 0.0316 µM
[32] = second compound 3.16 µM, first compound 0.1 µM
[33] = second compound 3.16 µM, first compound 0.316 µM
[34] = second compound 3.16 µM, first compound 1 µM
[35] = second compound 3.16 µM, first compound 3.16 µM
[36] = second compound 3.16 µM, first compound 10 µM
[37] = second compound 10 µM, first compound 0.0316 µM
[38] = second compound 10 µM, first compound 0.1 µM
[39] = second compound 10 µM, first compound 0.316 µM
[40] = second compound 10 µM, first compound 1 µM
[41] = second compound 10 µM, first compound 3.16 µM
[42] = second compound 10 µM, first compound 10 µM
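Further: viability measured after seven days of drug exposure.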
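Wherever viability, T/C is given: luminescence signal used as surrogate for viable cell amount; 100% = DMSO vehicle control wells.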

Nc1ccn(C2OC(CO)C(O)C2(F)F)c(=O)n1 (centres undefined) + CNC(=O)c1ccc(Nc2nc(OC3CCCC3)c3c(-c4ccc5nc(C)oc5c4)c[nH]c3n2)c(OC)c1
975 nM: IC50 [1]
< 31.6 nM: IC50 [4] | IC50 [5] | IC50 [6]
inactive: viability, T/C [7] 95.2% | viability, T/C [8] 73.2% | viability, T/C [9] 48.7% | viability, T/C [10] 57.2% | viability, T/C [11] 51.2% | viability, T/C [12] 37.9% | viability, T/C [13] 88.4% | viability, T/C [14] 75.7% | viability, T/C [15] 50.3% | viability, T/C [16] 49.9% | viability, T/C [17] 34.2% | viability, T/C [18] 25.4% | viability, T/C [19] 84.2% | viability, T/C [20] 64.5% | viability, T/C [21] 28% | viability, T/C [22] 17.1% | viability, T/C [23] 26.8% | viability, T/C [24] 22.1% | viability, T/C [25] 43.5% | viability, T/C [26] 18.9% | viability, T/C [27] 17.9% | viability, T/C [28] 16.4% | viability, T/C [29] 16.9% | viability, T/C [30] 17.4% | viability, T/C [31] 21% | viability, T/C [32] 18.4% | viability, T/C [33] 18% | viability, T/C [34] 16.8% | viability, T/C [35] 16.4% | viability, T/C [36] 15.5% | viability, T/C [37] 18.2% | viability, T/C [38] 18.4% | viability, T/C [39] 17.4% | viability, T/C [40] 15.4% | viability, T/C [41] 17.1% | viability, T/C [42] 16.2%
157 nM: IC50 [3]
629 nM: IC50 [2]

O=c1[nH]cc(F)c(=O)[nH]1
> 10000 nM: IC50 (curve of compound)
inactive: viability, T/C (compound 0.0316 µM) 93.5% and 101% | viability, T/C (compound 0.1 µM) 102% and 107% | viability, T/C (compound 0.316 µM) 88% and 104% | viability, T/C (compound 1 µM) 109% and 112% | viability, T/C (compound 3.16 µM) 67.9% and 113% | viability, T/C (compound 10 µM) 53.5% and 93.2%

CC1COCCN1c1cc(C2(S(C)(=N)=O)CC2)nc(-c2ccnc3[nH]ccc23)n1 (centres undefined) + CN1CCN(c2cc(C(=O)Nc3cc4cc(-c5cnn(C)c5)ccc4cn3)ccn2)CC1
active: viability, T/C [20] 9.28% | viability, T/C [21] 9% | viability, T/C [22] 7.71% | viability, T/C [23] 7.38% | viability, T/C [24] 4.64% | viability, T/C [25] 0.24% | viability, T/C [26] 0.3% | viability, T/C [27] 0.2% | viability, T/C [28] 0.19% | viability, T/C [29] 0.18% | viability, T/C [30] 0.82% | viability, T/C [31] 0.19% | viability, T/C [32] 1.51% | viability, T/C [33] 1.3% | viability, T/C [34] 0.18% | viability, T/C [35] 0.26% | viability, T/C [36] 1.69% | viability, T/C [37] 0.23% | viability, T/C [38] 0.28% | viability, T/C [39] 1.49% | viability, T/C [40] 0.34% | viability, T/C [41] 0.56% | viability, T/C [42] 1.29%
< 31.6 nM: IC50 [3] | IC50 [4] | IC50 [5] | IC50 [6]
1750 nM: IC50 [1]
115 nM: IC50 [2]
inactive: viability, T/C [7] 47.2% | viability, T/C [8] 74.3% | viability, T/C [9] 67.3% | viability, T/C [10] 89.2% | viability, T/C [11] 29.4% | viability, T/C [12] 26.9% | viability, T/C [13] 61.5% | viability, T/C [14] 53.8% | viability, T/C [15] 22% | viability, T/C [16] 30.5% | viability, T/C [17] 15.8% | viability, T/C [18] 15.1% | viability, T/C [19] 10.6%

COc1c(OCCCN2CCOCC2)ccc2c3n(c(=NC(=O)c4cnc(N)nc4)nc12)CCN3 + CNC(=O)c1ccc(Nc2nc(OC3CCCC3)c3c(-c4ccc5nc(C)oc5c4)c[nH]c3n2)c(OC)c1
12 nM: IC50 [1]
< 3.16 nM: IC50 [4] | IC50 [5] | IC50 [6]
active: viability, T/C [8] 13.7% | viability, T/C [9] 8.52% | viability, T/C [10] 1.96% | viability, T/C [14] 11.1% | viability, T/C [15] 7.84% | viability, T/C [16] 1.03% | viability, T/C [20] 7.32% | viability, T/C [21] 4.55% | viability, T/C [22] 0.36% | viability, T/C [25] 3.59% | viability, T/C [26] 0.43% | viability, T/C [27] 0.26% | viability, T/C [28] 1.09% | viability, T/C (second compound 3.16 µM, first compound 0.01 µM) 12.3% | viability, T/C [31] 2.46% | viability, T/C [32] 0.34% | viability, T/C [33] 2.13% | viability, T/C [34] 1.79% | viability, T/C (second compound 10 µM, first compound 0.01 µM) 10.4% | viability, T/C [37] 3.75% | viability, T/C [38] 2.46% | viability, T/C [39] 0.34% | viability, T/C [40] 3.45%
inactive: viability, T/C (second compound 0.0316 µM, first compound 0.00316 µM) 96.5% | viability, T/C (second compound 0.0316 µM, first compound 0.01 µM) 56.4% | viability, T/C [7] 17.8% | viability, T/C (second compound 0.1 µM, first compound 0.00316 µM) 87.3% | viability, T/C (second compound 0.1 µM, first compound 0.01 µM) 60.8% | viability, T/C [13] 14.7% | viability, T/C (second compound 0.316 µM, first compound 0.00316 µM) 67.3% | viability, T/C (second compound 0.316 µM, first compound 0.01 µM) 25.6% | viability, T/C [19] 12.7% | viability, T/C (second compound 1 µM, first compound 0.00316 µM) 25% | viability, T/C (second compound 1 µM, first compound 0.01 µM) 16.4% | viability, T/C (second compound 3.16 µM, first compound 0.00316 µM) 14.6% | viability, T/C (second compound 10 µM, first compound 0.00316 µM) 12.6%
13.1 nM: IC50 [2]
5.16 nM: IC50 [3]

C=C(F)C(=O)N1CCN(c2nc(OCC3CCCN3C)nc3c2CCN(c2cccc4cccc(Cl)c24)C3)CC1CC#N (centres undefined) + CNC(=O)c1ccc(Nc2nc(OC3CCCC3)c3c(-c4ccc5nc(C)oc5c4)c[nH]c3n2)c(OC)c1
7020 nM: IC50 [2]
> 10000 nM: IC50 [1]
< 31.6 nM: IC50 [5] | IC50 [6]
8050 nM: IC50 [3]
41.2 nM: IC50 [4]
inactive: viability, T/C [7] 104% | viability, T/C [8] 120% | viability, T/C [9] 102% | viability, T/C [10] 102% | viability, T/C [11] 110% | viability, T/C [12] 52.8% | viability, T/C [13] 94.1% | viability, T/C [14] 103% | viability, T/C [15] 83.9% | viability, T/C [16] 96.2% | viability, T/C [17] 96.5% | viability, T/C [18] 30% | viability, T/C [19] 79.5% | viability, T/C [20] 75.8% | viability, T/C [21] 81.9% | viability, T/C [22] 74.3% | viability, T/C [23] 90% | viability, T/C [24] 43.1% | viability, T/C [25] 50.1% | viability, T/C [26] 50.6% | viability, T/C [27] 45.5% | viability, T/C [28] 28.8% | viability, T/C [29] 46.8% | viability, T/C [30] 31.7% | viability, T/C [31] 23.4% | viability, T/C [32] 26.8% | viability, T/C [33] 26.3% | viability, T/C [34] 17.8% | viability, T/C [35] 18.4% | viability, T/C [36] 18.1% | viability, T/C [37] 22.6% | viability, T/C [38] 21.2% | viability, T/C [39] 24.7% | viability, T/C [40] 19.3% | viability, T/C [41] 17.5% | viability, T/C [42] 14.6%

O=c1[nH]cc(F)c(=O)[nH]1 + CNC(=O)c1ccc(Nc2nc(OC3CCCC3)c3c(-c4ccc5nc(C)oc5c4)c[nH]c3n2)c(OC)c1
inactive: viability, T/C [7] 110% | viability, T/C [8] 113% | viability, T/C [9] 106% | viability, T/C [10] 108% | viability, T/C [11] 92.3% | viability, T/C [12] 98.5% | viability, T/C [13] 92.3% | viability, T/C [14] 94.8% | viability, T/C [15] 86.8% | viability, T/C [16] 115% | viability, T/C [17] 90.4% | viability, T/C [18] 85.1% | viability, T/C [19] 83.6% | viability, T/C [20] 77.3% | viability, T/C [21] 66.5% | viability, T/C [22] 73.4% | viability, T/C [23] 68.8% | viability, T/C [24] 67% | viability, T/C [25] 42.1% | viability, T/C [26] 36% | viability, T/C [27] 27.9% | viability, T/C [28] 28.2% | viability, T/C [29] 31.7% | viability, T/C [30] 27.7% | viability, T/C [31] 20.3% | viability, T/C [32] 18.1% | viability, T/C [33] 19.9% | viability, T/C [34] 15.6% | viability, T/C [35] 18.4% | viability, T/C [36] 24.6% | viability, T/C [37] 17.1% | viability, T/C [38] 17.1% | viability, T/C [39] 18.7% | viability, T/C [40] 15.7% | viability, T/C [41] 18.6% | viability, T/C [42] 23.5%
> 10000 nM: IC50 [1] | IC50 [2] | IC50 [3]
< 31.6 nM: IC50 [4] | IC50 [5] | IC50 [6]

CC(C)CC(NC(=O)C(Cc1ccccc1)NC(=O)c1cnccn1)B(O)O (centres undefined)
2.11 nM and 2.62 nM: IC50 (curve of compound)
inactive: viability, T/C (compound 0.000949 µM) 84.2% and 86.5% | viability, T/C (compound 0.003 µM) 34.9% and 45.1%
active: viability, T/C (compound 0.00949 µM) 0.64% and 3.31% | viability, T/C (compound 0.03 µM) 1.34% and 1.82% | viability, T/C (compound 0.0949 µM) 0.77% and 0.3% | viability, T/C (compound 0.3 µM) 0.23% and 0.22%
